Reference: the supplement of paper PMC10307832

How the values were obtained:
Experiment in all cases: relative viability (nuclei count vs DMSO), 5 days (fraction); higher = more cells survive
[1] = compound: CC1CC(=O)N(C2=CN=C(N=C2N1C3CCCC3)NC4=C(C=C(C=C4)C(=O)NC5CCN(CC5)C)OC)C [NPK76-II-72-1] + CCNC(=O)c1noc(-c2cc(C(C)C)c(O)cc2O)c1-c1ccc(CN2CCOCC2)cc1 [Luminespib] (partner 0.01 µM)
Outline: (§1)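 Lung cancer cell lines in 1536-well plates were dosed by pin tool the day after seeding, either with one drug alone or with a fixed anchor-drug dose plus five library-drug doses (not always all listed) in √10 steps. After 5 days, cells were fixed and their nuclei stained in one step (final 0.05% Triton X-100, 1% formaldehyde, 1 ug/ml Hoechst), then counted on 4× images. Relative viability is the nuclei count in treated wells divided by that in vehicle wells. Values are medians of duplicate plates.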

BI-2536 + Pictilisib = compound: CC[C@@H]1C(=O)N(C)c2cnc(Nc3ccc(C(=O)NC4CCN(C)CC4)cc3OC)nc2N1C1CCCC1 [BI-2536] + CS(=O)(=O)N1CCN(Cc2cc3nc(-c4cccc5[nH]ncc45)nc(N4CCOCC4)c3s2)CC1 [Pictilisib] (partner 1 µM)
Outline: as §1

[2] = compound: CC1CC(=O)N(C2=CN=C(N=C2N1C3CCCC3)NC4=C(C=C(C=C4)C(=O)NC5CCN(CC5)C)OC)C [NPK76-II-72-1] + CC(=O)Nc1cccc(-n2c(=O)n(C3CC3)c(=O)c3c(Nc4ccc(I)cc4F)n(C)c(=O)c(C)c32)c1 [Trametinib] (partner 0.02 µM)
Outline: as §1

BI-2536 + Olaparib = compound: CC[C@@H]1C(=O)N(C)c2cnc(Nc3ccc(C(=O)NC4CCN(C)CC4)cc3OC)nc2N1C1CCCC1 [BI-2536] + O=C(c1cc(Cc2n[nH]c(=O)c3ccccc23)ccc1F)N1CCN(C(=O)C2CC2)CC1 [Olaparib] (partner 8 µM)
Outline: as §1

Cell Line	relative viability ([1]; first compound 0.01 µM)	relative viability ([1]; first compound 0.03162 µM)	relative viability ([1]; first compound 0.1 µM)	relative viability ([1]; first compound 0.3162 µM)	relative viability ([1]; first compound 1 µM)	relative viability (BI-2536 + Pictilisib; first compound 0.01 µM)	relative viability (BI-2536 + Pictilisib; first compound 0.03162 µM)	relative viability (BI-2536 + Pictilisib; first compound 0.1 µM)	relative viability (BI-2536 + Pictilisib; first compound 0.3162 µM)	relative viability (BI-2536 + Pictilisib; first compound 1 µM)	relative viability ([2]; first compound 0.01 µM)	relative viability ([2]; first compound 0.03162 µM)	relative viability ([2]; first compound 0.1 µM)	relative viability ([2]; first compound 0.3162 µM)	relative viability ([2]; first compound 1 µM)	relative viability (BI-2536 + Olaparib; first compound 0.01 µM)	relative viability (BI-2536 + Olaparib; first compound 0.03162 µM)	relative viability (BI-2536 + Olaparib; first compound 0.1 µM)	relative viability (BI-2536 + Olaparib; first compound 0.3162 µM)	relative viability (BI-2536 + Olaparib; first compound 1 µM)
201T	1.05	1.04	0.998	1.04	1.09	0.686	0.618	0.586	0.253	0.308	0.716	0.701	0.709	0.689	0.716	0.879	0.796	0.853	0.382	0.205
A549						0.46	0.461	0.0515	0.0559	0.0422						0.267	0.444	0.125	0.0214	0.0368
A-427	0.827	1.06	0.94	0.905	1.02	0.776	0.707	0.606	0.0766	0.122	0.732	0.743	0.812	0.691	0.812	0.727	0.593	0.385	0.191	0.176
ABC-1		0.389		0.543	0.522	0.81	0.609	0.214	0.31	0.243						0.657	0.876	0.423	0.406	0.299
BEN	0.326	0.332	0.325	0.403	0.329	0.574	0.48	0.389	0.235	0.209	1.15	0.945	1.13	0.854	1.08	1.09	0.984	0.779	0.382	0.364
CAL-12T	0.4	0.65	0.93	0.143	0.408	0.536	0.401	0.178	0.181	0.141	0.325	0.346	0.362	0.306	0.37	0.682	0.596	0.493	0.167	0.19
COR-L23	0.655	0.789	0.746	0.711	0.761	0.636	0.593	0.101	0.0743	0.0991	0.588	0.679	0.671	0.497	0.65	0.384	0.288	0.156	0.111	0.111
COR-L 105	0.782	0.642	0.934	0.508	0.704	0.437	0.358	0.23	0.237	0.216	0.43	0.456	0.491	0.424	0.435	0.655	0.668	0.679	0.404	0.296
Calu-6						0.894	0.396	0.107	0.0926	0.0965						0.533	0.524	0.243	0.0982	0.0892
ChaGo-K-1	0.624	0.616	0.695	0.523	0.67	0.643	0.535	0.243	0.275	0.354	0.876	0.98	0.868	0.897	0.875	0.414	0.308	0.265	0.164	0.15
EBC-1						0.35	0.232	0.147	0.158	0.119						0.616	0.612	0.377	0.139	0.133
EKVX	0.735	0.863	0.912	0.888	0.95	0.47	0.483	0.444	0.14	0.123	0.359	0.32	0.367		0.384	0.856	0.827	0.582	0.211	0.177
EMC-BAC-2	1.14	1.19	1.16	1.09	1.38	0.502	0.559	0.305	0.162	0.163	0.836	0.955	0.845	0.81	0.952	0.463	0.324	0.303	0.207	0.231
EPLC-272H	0.161		0.313	0.264	0.58	0.343	0.256		0.233	0.151	0.257	0.246	0.252	0.296	0.284	0.478	0.111	0.124	0.081	0.0599
H3255	0.871	0.76	0.55	0.675	0.891	0.503	0.503	0.305	0.176	0.182	0.675	0.603	0.637		0.587	0.529	0.401	0.406	0.298	0.275
HARA	0.854	0.831	0.668	0.439	0.895	0.372	0.535	0.147	0.072	0.0745	0.83	0.864	0.619		0.856	0.8	0.988	0.507	0.139	0.0972
HCC-15	0.226	0.256	0.275	0.16	0.318	0.746	0.795	0.365	0.124	0.117	0.35	0.329	0.342	0.357	0.393	0.612	0.557	0.343	0.163	0.144
HCC-44	0.977	1.26	0.996	1.02	1.2	0.68	0.769	0.257	0.0696	0.0951	1.06	1.27	0.95	0.992	0.988	1.05	1	0.952	0.378	0.33
